Measurements reported in US20120142667A1, “PYRIMIDINE DERIVATIVES AS ZAP-70 INHIBITORS” (priority 2009, published 2012).
Structures can show the parent of a compound that is named as a salt.

Legend:
ZAP-70 = biological target: T1, ZAP-70 (Homo sapiens, UniProt P43403); assay: ZAP-70 kinobeads assay; type: binding; settings: cell lysate
T1 construct: endogenous in cells; host or cells: cell lysate
T1 sequence (P43403 1-619): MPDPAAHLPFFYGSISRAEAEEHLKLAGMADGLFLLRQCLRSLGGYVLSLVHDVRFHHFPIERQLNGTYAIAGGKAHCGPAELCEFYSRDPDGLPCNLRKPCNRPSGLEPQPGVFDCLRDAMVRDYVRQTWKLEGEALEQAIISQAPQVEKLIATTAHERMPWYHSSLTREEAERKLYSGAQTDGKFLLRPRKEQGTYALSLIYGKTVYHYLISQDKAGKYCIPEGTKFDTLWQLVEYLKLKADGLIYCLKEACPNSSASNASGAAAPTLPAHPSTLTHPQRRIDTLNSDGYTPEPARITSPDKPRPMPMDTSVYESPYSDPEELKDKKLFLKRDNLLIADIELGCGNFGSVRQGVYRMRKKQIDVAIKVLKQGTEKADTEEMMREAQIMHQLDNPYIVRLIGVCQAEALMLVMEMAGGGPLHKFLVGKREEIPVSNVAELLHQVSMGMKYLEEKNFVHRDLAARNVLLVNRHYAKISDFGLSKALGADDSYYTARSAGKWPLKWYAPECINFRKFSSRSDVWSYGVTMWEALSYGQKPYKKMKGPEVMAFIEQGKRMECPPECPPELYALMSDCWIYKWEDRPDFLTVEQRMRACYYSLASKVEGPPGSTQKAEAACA
Description: The compounds of the present invention as described in the previous examples can be tested in the ZAP-70 kinobeads assay as described (EP-A 1862802 and WO-A 2007/137867). Briefly, test compounds (at various concentrations) and the affinity matrix with the immobilized aminopyrido-pyrimidine ligand 24 are added to cell lysate aliquots and allowed to bind to the proteins in the lysate sample. After the incubation time the beads with captured proteins are separated from the lysate. Bound proteins are then eluted and the presence ZAP-70 is detected and quantified using a specific antibody in a dot blot procedure and the Odyssey infrared detection system.

[1] = system: Calcium Ion Release in Cells; assay: calcium release assay (measurement of calcium ion release in cells); type: cell-based; settings: calcium release assay as described in WO-A 2009/080638

Structure (SMILES) | IC50 (ZAP-70) | IC50 [1]
COc1ccc(Nc2nc(Nc3cccc(CCCO)c3C)ncc2Cl)c(NS(C)(=O)=O)c1 [Example 97, N-(2-((5-chloro-2-((3-(3-hydroxypropyl)-2-methylphenyl)amino)pyrimidin-4-yl)amino)-5-methoxyphenyl)methanesulfonamide] | ≤ 0.1 µM | ≤ 1 µM
COc1ccc(Nc2nc(Nc3cccc(OCC(C)O)c3C)ncc2Cl)c(NS(C)(=O)=O)c1 (stereo not drawn) [Example 93, N-(2-((5-chloro-2-((3-(2-hydroxypropoxy)-2-methylphenyl)amino)pyrimidin-4-yl)amino)-5-methoxyphenyl)methanesulfonamide] | 0.1 to 1 µM | ≤ 1 µM
COc1ccc(Nc2nc(Nc3cc(CCC(N)=O)ccc3OC)ncc2Cl)c(NS(C)(=O)=O)c1 [Example 113, 3-(3-(5-chloro-4-(4-methoxy-2-(methylsulfonamido)phenylamino)pyrimidin-2-ylamino)-4-methoxyphenyl)propanamide] | 0.1 to 1 µM | ≤ 1 µM
COc1ccc(Nc2nc(Nc3cc(OC)c(OC)cc3C)ncc2Cl)c(NS(C)(=O)=O)c1 [Example 37, N-(2-(5-chloro-2-(4,5-dimethoxy-2-methylphenylamino)pyrimidin-4-ylamino)-5-methoxyphenyl)methanesulfonamide] | ≤ 0.1 µM | ≤ 1 µM
COc1ccc(Nc2nc(Nc3cc(OCCCN4CCCCC4)ccc3OC)ncc2Cl)c(NS(C)(=O)=O)c1 [Example 2, N-(2-(5-chloro-2-(2-methoxy-5-(3-(piperidin-1-yl)propoxy)phenylamino)pyrimidin-4-ylamino)-5-methoxyphenyl)methanesulfonamide] | ≤ 0.1 µM | ≤ 1 µM
COc1ccc(Nc2nc(Nc3ccc(OCC(N)=O)cc3OC)ncc2Cl)c(NS(C)(=O)=O)c1 [Example 89, 2-(4-((5-chloro-4-((4-methoxy-2-(methylsulfonamido)phenyl)amino)pyrimidin-2-yl)amino)-3-methoxyphenoxy)acetamide] | ≤ 0.1 µM | ≤ 1 µM
COc1ccc(Nc2nc(Nc3cc(OCCO)ccc3Cl)ncc2Cl)c(NS(C)(=O)=O)c1 [Example 111, N-(2-((5-chloro-2-((2-chloro-5-(2-hydroxyethoxy)phenyl)amino)pyrimidin-4-yl)amino)-5-methoxyphenyl)methanesulfonamide] | 0.1 to 1 µM | ≤ 1 µM
COc1ccc(Nc2nc(Nc3cc(OCCO)ccc3OC)ncc2F)c(NS(C)(=O)=O)c1 [Example 106, N-(2-(5-fluoro-2-(5-(2-hydroxyethoxy)-2-methoxyphenylamino)pyrimidin-4-ylamino)-5-methoxyphenyl)methanesulfonamide] | 0.1 to 1 µM | ≤ 1 µM
COc1ccc(Nc2nc(Nc3ccc(OCCO)cc3OC)ncc2Cl)c(NS(C)(=O)=O)c1 [Example 4, N-(2-(5-chloro-2-(4-(2-hydroxyethoxy)-2-methoxyphenylamino)pyrimidin-4-ylamino)-5-methoxyphenyl)methanesulfonamide] | ≤ 0.1 µM | ≤ 1 µM
COc1ccc(Nc2nc(Nc3cnc(OC)cc3C)ncc2Cl)c(NS(C)(=O)=O)c1 [Example 74, N-(2-(5-chloro-2-(6-methoxy-4-methylpyridin-3-ylamino)pyrimidin-4-ylamino)-5-methoxyphenyl)methanesulfonamide] | 0.1 to 1 µM | ≤ 1 µM
COc1ccc(Nc2nc(Nc3cnc(OC)cc3OC)ncc2Cl)c(NS(C)(=O)=O)c1 [Example 3, N-(2-(5-chloro-2-(4,6-dimethoxypyridin-3-ylamino)pyrimidin-4-ylamino)-5-methoxyphenyl)methanesulfonamide] | ≤ 0.1 µM | ≤ 1 µM
COc1ccc(Nc2nc(Nc3ccncc3OC)ncc2Cl)c(NS(C)(=O)=O)c1 [Example 76, N-(2-(5-chloro-2-(3-methoxypyridin-4-ylamino)pyrimidin-4-ylamino)-5-methoxyphenyl)methanesulfonamide] | 0.1 to 1 µM | ≤ 1 µM
COc1ccc(Nc2nc(Nc3cc(OCCCO)ccc3C)ncc2Cl)c(NS(C)(=O)=O)c1 [Example 87, N-(2-(5-chloro-2-(5-(3-hydroxypropoxy)-2-methylphenylamino)pyrimidin-4-ylamino)-5-methoxyphenyl)methanesulfonamide] | 0.1 to 1 µM | ≤ 1 µM
COc1ccc(Nc2nc(Nc3cccc(OCCCO)c3C)ncc2Cl)c(NS(C)(=O)=O)c1 [Example 94, N-(2-((5-chloro-2-((3-(3-hydroxypropoxy)-2-methylphenyl)amino)pyrimidin-4-yl)amino)-5-methoxyphenyl)methanesulfonamide] | 0.1 to 1 µM | ≤ 1 µM
COc1ccc(Nc2nc(Nc3cc(OCC(N)=O)ccc3OC)ncc2Cl)c(NS(C)(=O)=O)c1 [Example 108, 2-(3-((5-chloro-4-((4-methoxy-2-(methylsulfonamido)phenyl)amino)pyrimidin-2-yl)amino)-4-methoxyphenoxy)acetamide] | ≤ 0.1 µM | ≤ 1 µM
COc1ccc(Nc2nc(Nc3cnc(OCCO)cc3C)ncc2Cl)c(NS(C)(=O)=O)c1 [Example 85, N-(2-(5-chloro-2-(6-(2-hydroxyethoxy)-4-methylpyridin-3-ylamino)pyrimidin-4-ylamino)-5-methoxyphenyl)methanesulfonamide] | 0.1 to 1 µM | ≤ 1 µM
COc1ccc(Nc2nc(Nc3ccc(OCCO)cc3C)ncc2Cl)c(NS(C)(=O)=O)c1 [Example 73, N-(2-(5-chloro-2-(4-(2-hydroxyethoxy)-2-methylphenylamino)pyrimidin-4-ylamino)-5-methoxyphenyl)methanesulfonamide] | ≤ 0.1 µM | ≤ 1 µM
COc1ccc(Nc2nc(Nc3cc(OC)c(OC)cc3OC)ncc2Cl)c(NS(C)(=O)=O)c1 [Example 29, N-(2-(5-chloro-2-(2,4,5-trimethoxyphenylamino)pyrimidin-4-ylamino)-5-methoxyphenyl)methanesulfonamide] | 0.1 to 1 µM | ≤ 1 µM
COc1ccc(Nc2nc(Nc3ccncc3F)ncc2Cl)c(NS(C)(=O)=O)c1 [Example 72, N-(2-(5-chloro-2-(3-fluoropyridin-4-ylamino)pyrimidin-4-ylamino)-5-methoxyphenyl)methanesulfonamide] | 0.1 to 1 µM | ≤ 1 µM
COc1ccc(Nc2nc(Nc3ccc(OCCN)cc3OC)ncc2Cl)c(NS(C)(=O)=O)c1 [Example 63, N-(2-(2-(4-(2-aminoethoxy)-2-methoxyphenylamino)-5-chloropyrimidin-4-ylamino)-5-methoxyphenyl)methanesulfonamide] | 0.1 to 1 µM | ≤ 1 µM
COc1ccc(Nc2nc(Nc3ccc(OC)c(OC)c3OC)ncc2Cl)c(NS(C)(=O)=O)c1 [Example 32, N-(2-(5-chloro-2-(2,3,4-trimethoxyphenylamino)pyrimidin-4-ylamino)-5-methoxyphenyl)methanesulfonamide hydrochloride] | 0.1 to 1 µM | ≤ 1 µM
COc1ccc(Nc2nc(Nc3ccnc(C)c3C)ncc2Cl)c(NS(C)(=O)=O)c1 [Example 80, N-(2-(5-chloro-2-(2,3-dimethylpyridin-4-ylamino)pyrimidin-4-ylamino)-5-methoxyphenyl)methanesulfonamide] | 0.1 to 1 µM | ≤ 1 µM
COc1ccc(Nc2nc(Nc3cccc(OCCO)c3C)ncc2Cl)c(NS(C)(=O)=O)c1 [Example 65, N-(2-(5-chloro-2-(3-(2-hydroxyethoxy)-2-methylphenylamino)pyrimidin-4-ylamino)-5-methoxyphenyl)methanesulfonamide] | ≤ 0.1 µM | ≤ 1 µM
COc1ccc(Nc2nc(Nc3cc4c(cc3OC)OCCO4)ncc2Cl)c(NS(C)(=O)=O)c1 [Example 40, N-(2-(5-chloro-2-(7-methoxy-2,3-dihydrobenzo[b][1,4]dioxin-6-ylamino)pyrimidin-4-ylamino)-5-methoxyphenyl)methanesulfonamide] | 0.1 to 1 µM | 
COc1ccc(Nc2nc(Nc3cc(OC)ccc3OC)ncc2Br)c(NS(C)(=O)=O)c1 [Example 23, N-(2-(5-bromo-2-(2,5-dimethoxyphenylamino)pyrimidin-4-ylamino)-5-methoxyphenyl)methanesulfonamide] | 0.1 to 1 µM | 
COc1ccc(Nc2nc(Nc3cccc(OC)c3C)ncc2Cl)c(NS(C)(=O)=O)c1 [Example 54, N-(2-(5-chloro-2-(3-methoxy-2-methylphenylamino)pyrimidin-4-ylamino)-5-methoxyphenyl)methanesulfonamide] | 0.1 to 1 µM | 
COc1ccc(Nc2ncc(Cl)c(Nc3ccc(OC)cc3NS(C)(=O)=O)n2)c(F)c1 [Example 33, N-(2-(5-chloro-2-(2-fluoro-4-methoxyphenylamino)pyrimidin-4-ylamino)-5-methoxyphenyl)methanesulfonamide] | 0.1 to 1 µM | 
COc1ccc(OCCO)cc1Nc1ncc(F)c(Nc2ccccc2NS(C)(=O)=O)n1 [Example 102, N-(2-(5-fluoro-2-(5-(2-hydroxyethoxy)-2-methoxyphenylamino)pyrimidin-4-ylamino)phenyl)methanesulfonamide] | 1 to 10 µM | 
